Results taken from US7427625B2, “Substituted thiatriazaacenaphthylene-6-carbonitrile kinase inhibitors” (Janssen Pharmaceutica, N.V., priority 2006, dated 2008).

What was measured:
[1] = molecular target: T1, Aurora-A (Mus musculus, UniProt P97477); assay: Aurora-A Screening Assay; assay type: biochemical, murine
T1 construct: followed by the full length protein encoding the murine Aurora-A; polyhistidine (N); made in house; host or cells: sf9 insect cells
T1 sequence (P97477 1-395): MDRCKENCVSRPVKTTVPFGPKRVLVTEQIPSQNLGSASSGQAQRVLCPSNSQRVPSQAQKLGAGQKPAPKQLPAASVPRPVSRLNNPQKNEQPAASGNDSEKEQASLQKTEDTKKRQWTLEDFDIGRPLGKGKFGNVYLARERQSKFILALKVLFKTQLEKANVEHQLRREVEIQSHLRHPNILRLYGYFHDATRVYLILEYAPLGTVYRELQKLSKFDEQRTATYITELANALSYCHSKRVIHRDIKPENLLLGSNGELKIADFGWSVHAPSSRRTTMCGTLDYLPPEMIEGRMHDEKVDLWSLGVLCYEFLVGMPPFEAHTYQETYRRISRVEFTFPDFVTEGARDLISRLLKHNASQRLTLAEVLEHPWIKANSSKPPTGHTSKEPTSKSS

[2] = molecular target: T2, HER-2 (Homo sapiens, UniProt P04626); assay: HER-2 Kinase Assay; assay type: biochemical
T2 construct: the nucleotides encoding amino acids 679 to 1255 of HER-2; purchased Proqinase (Freiburg, Germany)
In short: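 GST-HIS6-thrombin fusion of HER-2 residues 679–1255, assayed with biotinylated polyGluTyr, 1 μM ATP plus γ-33P-ATP, Mg2+, Mn2+ and vanadate in Hepes pH 7.5 for 1 h at 30 °C. Incorporation read by streptavidin Flashplate scintillation counting; IC50 values, or % inhibition at 1 μM.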

[3] = molecular target: T3, Lyn kinase (Homo sapiens, UniProt P07948); assay: Lyn Kinase Assay; assay type: biochemical; settings: for inhibition at 2 µM: test concentration of 2 μM, read-out: Lyn percent inhibition
T3 construct: purchased Upstate Biotechnology, Lake Placid, N.Y
Description: A mixture of a 10× kinase buffer (500 mM MOPS at pH 7.5, 1 mM EGTA, 1 mM Sodium Vanadate, 1% β-mercaptoethanol and 100 mM Magnesium Acetate), ATP (5 μM final from a 10 mM stock), polyGluTyr (0.1 mg/mL final from a 1 mg/mL stock), γ-^33P ATP (10 μCi/μL stock) and water (20 μL/well) was added to each well of a Streptavidin Flashplate.
Test compound in 100% DMSO (0.5 μL) was added to the appropriate wells. Diluted Lyn kinase (human) (Upstate Biotechnology, Lake Placid, N.Y.) (diluted in a buffer consisting of 50 mM Tris at pH 7.5, 0.1 mM EGTA, Sodium Vanadate (0.1 mM), β-mercaptoethanol (0.1%) and 1 mg/mL bovine serum albumin) (2.5 μL) was added to the wells to initiate the reactions.
The reaction plates were incubated at 30° C. for 40 min. The reaction was terminated by the addition of a 3% phosphoric acid solution (5 μL). The reaction product (10 μL) was spotted onto a P30 filtermat and washed for 5 minutes in phosphoric acid (75 mM). The wash sequence was repeated two more times, followed with one final wash in methanol. The plates were then dried, sealed and read on the TopCount scintillation counter after adding 30 μL scintillation fluid.
Percent inhibition was derived according to the procedure described in Example 2. For those compounds without an IC50, the percent inhibition results are shown at a test concentration of 2 μM.

T2 sequence (P04626 679-1255): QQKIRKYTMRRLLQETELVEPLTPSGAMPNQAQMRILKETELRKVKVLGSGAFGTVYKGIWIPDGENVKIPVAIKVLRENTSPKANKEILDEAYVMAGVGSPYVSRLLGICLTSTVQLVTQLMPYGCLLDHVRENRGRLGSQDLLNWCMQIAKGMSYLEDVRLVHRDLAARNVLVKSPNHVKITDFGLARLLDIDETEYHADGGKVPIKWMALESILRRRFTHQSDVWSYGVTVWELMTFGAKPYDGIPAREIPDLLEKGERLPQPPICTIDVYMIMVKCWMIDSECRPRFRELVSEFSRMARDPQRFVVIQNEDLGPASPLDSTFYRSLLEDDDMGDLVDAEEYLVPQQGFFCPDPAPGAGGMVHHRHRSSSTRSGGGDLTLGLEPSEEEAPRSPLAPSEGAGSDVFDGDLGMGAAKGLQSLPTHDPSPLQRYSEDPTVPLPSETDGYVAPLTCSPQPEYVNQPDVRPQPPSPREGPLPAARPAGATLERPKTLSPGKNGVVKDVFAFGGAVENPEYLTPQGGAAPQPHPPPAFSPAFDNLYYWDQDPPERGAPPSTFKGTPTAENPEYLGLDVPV
T3 sequence (P07948 whole entry): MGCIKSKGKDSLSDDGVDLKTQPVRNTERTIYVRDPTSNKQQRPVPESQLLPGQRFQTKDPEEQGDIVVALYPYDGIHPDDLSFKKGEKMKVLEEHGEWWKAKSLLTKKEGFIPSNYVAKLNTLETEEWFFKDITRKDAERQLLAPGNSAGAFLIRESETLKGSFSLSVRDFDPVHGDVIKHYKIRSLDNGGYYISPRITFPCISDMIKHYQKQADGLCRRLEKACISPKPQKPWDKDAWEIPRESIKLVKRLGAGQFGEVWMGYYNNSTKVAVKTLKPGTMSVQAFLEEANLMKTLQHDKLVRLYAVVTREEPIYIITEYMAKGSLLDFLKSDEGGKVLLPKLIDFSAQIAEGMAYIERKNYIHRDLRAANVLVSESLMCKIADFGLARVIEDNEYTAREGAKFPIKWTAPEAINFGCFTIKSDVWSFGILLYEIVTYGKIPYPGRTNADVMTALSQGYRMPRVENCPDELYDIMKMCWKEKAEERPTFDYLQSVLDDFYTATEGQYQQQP

Row | SMILES | IC50 [1] | IC50 [2] | IC50 [3] | inhibition at 2 µM [3] | inhibition at 1 µM ([1]; test concentration of 1 μM, read-out: Aurora-A percent inhibition) | inhibition at 1 µM ([2]; test concentration of 1 μM, read-out: HER-2 percent inhibition)
1 | CCOC(=O)c1sc2nc(N3CCOCC3)c(C#N)c3c2c1NC(=O)N3c1c(Cl)ccc2c1OCO2 [Cpd 7, 5-(5-chloro-benzo[1,3]dioxol-4-yl)-6-cyano-7-morpholin-4-yl-4-oxo-4,5-dihydro-3H-1-thia-3,5,8-triaza-acenaphthylene-2-carboxylic acid ethyl ester] | > 10 µM | > 100 µM |  | 43% |  | 
2 | N#Cc1c(N2CCOCC2)nc2sc(C(=O)Nc3ccc(CN4CCOCC4)cc3)c3c2c1N(c1c(Cl)ccc2c1OCO2)C(=O)N3 [Cpd 8, 5-(5-chloro-benzo[1,3]dioxol-4-yl)-6-cyano-7-morpholin-4-yl-4-oxo-4,5-dihydro-3H-1-thia-3,5,8-triaza-acenaphthylene-2-carboxylic acid (4-morpholin-4-ylmethyl-phenyl)-amide] | 6.47 µM | ~100 µM |  | 40% |  | 
3 | CN1CCC(NC(=O)c2sc3ncc(C#N)c4c3c2NC(=O)N4c2c(Cl)ccc3c2OCO3)CC1 [Cpd 10, 5-(5-chloro-benzo[1,3]dioxol-4-yl)-6-cyano-4-oxo-4,5-dihydro-3H-1-thia-3,5,8-triaza-acenaphthylene-2-carboxylic acid (1-methyl-piperidin-4-yl)-amide] | 13.3 µM | 7.16 µM | 0.268 µM |  |  | 
4 | N#Cc1cnc2sc(C(=O)Nc3ccc(CCN4CCCCC4)cc3)c3c2c1N(c1c(Cl)ccc2c1OCO2)C(=O)N3 [Cpd 11, 5-(5-chloro-benzo[1,3]dioxol-4-yl)-6-cyano-4-oxo-4,5-dihydro-3H-1-thia-3,5,8-triaza-acenaphthylene-2-carboxylic acid [4-(2-piperidin-1-yl-ethyl)-phenyl]-amide] | > 1 µM | 2.91 µM | 0.113 µM |  |  | 
5 | CCOC(=O)c1sc2nc(O)c(C#N)c3c2c1NC(=O)N3c1ccncc1 [Cpd 14, 6-cyano-7-hydroxy-4-oxo-5-pyridin-4-yl-4,5-dihydro-3H-1-thia-3,5,8-triaza-acenaphthylene-2-carboxylic acid ethyl ester] | > 100 µM | > 100 µM |  |  |  | 
6 | CCOC(=O)c1sc2nc(-c3cc(F)ccc3Cl)c(C#N)c3c2c1NC(=O)N3c1ccncc1 [Cpd 15, 7-(2-chloro-5-fluoro-phenyl)-6-cyano-4-oxo-5-pyridin-4-yl-4,5-dihydro-3H-1-thia-3,5,8-triaza-acenaphthylene-2-carboxylic acid ethyl ester] | > 100 µM | > 100 µM |  |  |  | 
7 | CN(C)C1CCN(C(=O)c2sc3ncc(C#N)c4c3c2NC(=O)N4c2c(Cl)ccc3c2OCO3)CC1 [Cpd 41, 5-(5-chloro-benzo[1,3]dioxol-4-yl)-2-(4-dimethylamino-piperidine-1-carbonyl)-4-oxo-4,5-dihydro-3H-1-thia-3,5,8-triaza-acenaphthylene-6-carbonitrile] | > 10 µM | 13.5 µM |  |  |  | 
8 | CC(C)(C)OC(=O)NC1CCN(Cc2ccc(NC(=O)c3sc4ncc(C#N)c5c4c3NC(=O)N5c3c(Cl)ccc4c3OCO4)cc2)CC1 [Cpd 46, [1-(4-{[5-(5-chloro-benzo[1,3]dioxol-4-yl)-6-cyano-4-oxo-4,5-dihydro-3H-1-thia-3,5,8-triaza-acenaphthylene-2-carbonyl]-amino}-benzyl)-piperidin-4-yl]-carbamic acid tert-butyl ester] | > 1 µM | 0.134 µM |  |  |  | 
9 | N#Cc1cnc2sc(C(=O)Nc3ccc(CCN4CCCCC4)cc3)c3c2c1N(c1ccc(Oc2ccccc2)cc1)C(=O)N3 [Cpd 48, 6-cyano-4-oxo-5-(4-phenoxy-phenyl)-4,5-dihydro-3H-1-thia-3,5,8-triaza-acenaphthylene-2-carboxylic acid [4-(2-piperidin-1-yl-ethyl)-phenyl]-amide] | > 100 µM | > 10 µM |  |  |  | 
10 | N#Cc1cnc2sc(C(=O)Nc3ccc(CN4CCCCC4)cc3)c3c2c1N(c1ccc(Oc2ccccc2)cc1)C(=O)N3 [Cpd 49, 6-cyano-4-oxo-5-(4-phenoxy-phenyl)-4,5-dihydro-3H-1-thia-3,5,8-triaza-acenaphthylene-2-carboxylic acid (4-piperidin-1-ylmethyl-phenyl)-amide] | > 100 µM | 0.836 µM |  |  |  | 

The next lines start with the values.

Row | IC50 [1] | IC50 [2] | IC50 [3] | inhibition at 2 µM [3] | inhibition at 1 µM ([1]; test concentration of 1 μM, read-out: Aurora-A percent inhibition) | inhibition at 1 µM ([2]; test concentration of 1 μM, read-out: HER-2 percent inhibition) | SMILES
11 | 10.6 µM | 5.35 µM | 0.477 µM |  |  |  | N#Cc1cnc2sc(C(=O)Nc3ccc(CN4CCOCC4)cc3)c3c2c1N(c1c(Cl)ccc2c1OCO2)C(=O)N3 [Cpd 4, 5-(5-chloro-benzo[1,3]dioxol-4-yl)-6-cyano-4-oxo-4,5-dihydro-3H-1-thia-3,5,8-triaza-acenaphthylene-2-carboxylic acid (4-morpholin-4-ylmethyl-phenyl)-amide]
12 | > 10 µM | > 10 µM |  | 83% |  |  | COc1cc(N2C(=O)Nc3c(C(=O)Nc4ccc(CN5CCOCC5)cc4)sc4ncc(C#N)c2c34)c(Cl)cc1Cl [Cpd 5, 6-cyano-5-(2,4-dichloro-5-methoxy-phenyl)-4-oxo-4,5-dihydro-3H-1-thia-3,5,8-triaza-acenaphthylene-2-carboxylic acid (4-morpholin-4-ylmethyl-phenyl)-amide]
13 | > 10 µM | ~100 µM |  | 75% |  |  | COc1cc(N2C(=O)Nc3c(C(=O)Nc4ccc(CCN5CCOCC5)cc4)sc4ncc(C#N)c2c34)c(Cl)cc1Cl [Cpd 6, 6-cyano-5-(2,4-dichloro-5-methoxy-phenyl)-4-oxo-4,5-dihydro-3H-1-thia-3,5,8-triaza-acenaphthylene-2-carboxylic acid [4-(2-morpholin-4-yl-ethyl)-phenyl]-amide]
14 | > 1 µM | > 10 µM |  | 58% |  |  | Cc1nc2sc(C(=O)Nc3ccc(CN4CCOCC4)cc3)c3c2c(c1C#N)N(c1c(Cl)ccc2c1OCO2)C(=O)N3 [Cpd 9, 5-(5-chloro-benzo[1,3]dioxol-4-yl)-6-cyano-7-methyl-4-oxo-4,5-dihydro-3H-1-thia-3,5,8-triaza-acenaphthylene-2-carboxylic acid (4-morpholin-4-ylmethyl-phenyl)-amide]
15 | ~10 µM | 5.55 µM |  | 93% |  |  | CN1CCN(CCc2ccc(NC(=O)c3sc4ncc(C#N)c5c4c3NC(=O)N5c3c(Cl)ccc4c3OCO4)cc2)CC1 [Cpd 12, 5-(5-chloro-benzo[1,3]dioxol-4-yl)-6-cyano-4-oxo-4,5-dihydro-3H-1-thia-3,5,8-triaza-acenaphthylene-2-carboxylic acid {4-[2-(4-methyl-piperazin-1-yl)-ethyl]-phenyl}-amide]
16 | 5.93 µM | > 1 µM |  | 76% |  |  | N#Cc1cnc2sc(C(=O)Nc3ccc(CCN4CCOCC4)cc3)c3c2c1N(c1c(Cl)ccc2c1OCO2)C(=O)N3 [Cpd 13, 5-(5-chloro-benzo[1,3]dioxol-4-yl)-6-cyano-4-oxo-4,5-dihydro-3H-1-thia-3,5,8-triaza-acenaphthylene-2-carboxylic acid [4-(2-morpholin-4-yl-ethyl)-phenyl]-amide]
17 |  |  |  |  | 9% | 49% | CC1CCN(Cc2ccc(NC(=O)c3sc4ncc(C#N)c5c4c3NC(=O)N5c3c(Cl)ccc4c3OCO4)cc2)CC1 [Cpd 19, 5-(5-chloro-benzo[1,3]dioxol-4-yl)-6-cyano-4-oxo-4,5-dihydro-3H-1-thia-3,5,8-triaza-acenaphthylene-2-carboxylic acid [4-(4-methyl-piperidin-1-ylmethyl)-phenyl]-amide]
18 | > 10 µM | > 1 µM |  |  |  |  | CN(C)C1CCN(Cc2ccc(NC(=O)c3sc4ncc(C#N)c5c4c3NC(=O)N5c3c(Cl)ccc4c3OCO4)cc2)CC1 [Cpd 42, 5-(5-chloro-benzo[1,3]dioxol-4-yl)-6-cyano-4-oxo-4,5-dihydro-3H-1-thia-3,5,8-triaza-acenaphthylene-2-carboxylic acid [4-(4-dimethylamino-piperidin-1-ylmethyl)-phenyl]-amide]
19 | > 100 µM | 0.0836 µM |  |  |  |  | COc1cc(NC(=O)c2sc3ncc(C#N)c4c3c2NC(=O)N4c2ccc(Oc3ccccc3)cc2)ccc1CN1CCOCC1 [Cpd 45, 6-cyano-4-oxo-5-(4-phenoxy-phenyl)-4,5-dihydro-3H-1-thia-3,5,8-triaza-acenaphthylene-2-carboxylic acid (3-methoxy-4-morpholin-4-ylmethyl-phenyl)-amide]
